Source: US20060287375A1 (priority 2003, published 2006)
Where two headings read alike, the source gives them in different places.

Legend:
Pyricularia oryzae [1] = type: in vivo; details: paddy rice (Aichi Asahi), wettable powder on water surface, 1,000 g active ingredient per 10 ares; inoculated 10 days after application, examined 5 days after inoculation
Pyricularia oryzae [2] = type: in vivo; details: rice (Aichi Asahi), granule applied to seedling-raising box, 12 g active ingredient per box; inoculated 40 days after application, examined 6 days after inoculation
Septoria nodorum = test: Test for control effect on Septoria leaf spot of wheat; type: in vivo; details: wheat seedlings (Nohrin No. 61), wettable powder at 500 ppm, 10 ml per pot; examined 10 days after inoculation
Text: Test for Control Effect on Septoria Leaf Spot of Wheat
In each of plastic pots of 6 cm in diameter were sown 10 wheat seeds (variety: Nohrin No. 61). They were allowed to germinate in a greenhouse. […] After air-drying, the seedlings were inoculated with pycnospores of Septoria nodorum and the pot was placed in a greenhouse. After 10 days from the inoculation, the total diseased area of all the first leaves in the pot was examined.

Pyricularia oryzae [3] = type: in vivo; details: rice seedlings (Aichi Asahi), wettable powder sprayed at 500 ppm active ingredient, 10 ml per pot; examined 5 days after inoculation
[4] = tested on: Pseudoperonospora cubensis; details: cucumber seedlings (sagami hanjiro), wettable powder at 500 ppm, 15 ml per pot; examined 7 days later
Method: 10 cucumber seeds (variety: sagami hanjiro) were sown in each of vinyl chloride resin made pots of 9 cm×9 cm and were allowed to germinate in a greenhouse for 7 days. The resulting cucumber young seedlings which reached a cotyledon stage were used as a sample plant. […] The plant was air-dried and inoculated, by spraying, with a suspension of conidia of Pseudoperonospora cubensis. Immediately, the pot was placed in a wet house of 20° C. for 24 hours. Then, the pot was transferred into a greenhouse. 7 days later, the total diseased area of all the cotyledons in the pot was examined.

Erysiphe graminis = test: Test for control effect on powdery mildew of wheat; type: in vivo; details: wheat seedlings (Nohrin No. 61), wettable powder at 500 ppm, 10 ml per pot; inoculated 7 days after application, examined 8 days after inoculation
Text: Test for Control Effect on Powdery Mildew of Wheat
In each of plasic pots of 6 cm in diameter were sown 10 wheat seeds (variety: Nohrin No. 61). They were allowed to germinate in a greenhouse. […] After 7 days from the application, the seedlings were inoculated, by spraying, with conidia of Erysiphe graminis. After 8 days from the inoculation, the total infected area of all the first leaves in the pot was examined.

SMILES | Evaluation (preventive value, number of lesions of the upper young leaf) (Pyricularia oryzae [1]) | Evaluation (total diseased area of all the first leaves) (Septoria nodorum) | Evaluation (preventive value, number of lesions of the fourth leaf) (Pyricularia oryzae [3]) | also measured
CCOC(=O)N1C(=S)c2ccccc2S1(=O)=O [Compound No. 5, 2-ethoxycarbonyl-1,2-benzisothiazoline-3-thioxo-1,1-dioxide] | B (Less than 100 to 80.0 or more) | B (Less than 25% of untreated plot) | B (Less than 100 to 80.0 or more) | Evaluation (preventive value, number of lesions of the upper young leaf) (Pyricularia oryzae [2]): B (Less than 100 to 80.0 or more)
CC(C)N1C(=S)c2ccccc2S1(=O)=O [Compound No. 11] | B (Less than 100 to 80.0 or more) |  |  | 
O=S1(=O)c2ccccc2C(=S)N1CC=CCl [Compound No. 50] |  | B (Less than 25% of untreated plot) |  | Evaluation (total diseased area of all the cotyledons) [4]: B (Less than 25% of untreated plot)
C=CCOC1=NS(=O)(=O)c2ccccc21 [Probenazole, reference compound] | B (Less than 100 to 80.0 or more) |  |  | Evaluation (preventive value, number of lesions of the upper young leaf) (Pyricularia oryzae [2]): B (Less than 100 to 80.0 or more)
COCN1C(=S)c2ccccc2S1(=O)=O [compound 2] | B (Less than 100 to 80.0 or more) |  | B (Less than 100 to 80.0 or more) | Evaluation (preventive value, number of lesions of the upper young leaf) (Pyricularia oryzae [2]): B (Less than 100 to 80.0 or more); Evaluation (total diseased area of all the cotyledons) [4]: B (Less than 25% of untreated plot); Evaluation (total infected area of all the first leaves) (Erysiphe graminis): B (Less than 25% of untreated plot)
CCOCN1C(=S)c2ccccc2S1(=O)=O [compound 3, 2-ethoxymethyl-1,2-benzisothiazoline-3-thioxo-1,1-dioxide] | B (Less than 100 to 80.0 or more) |  | B (Less than 100 to 80.0 or more) | Evaluation (preventive value, number of lesions of the upper young leaf) (Pyricularia oryzae [2]): B (Less than 100 to 80.0 or more)
CCCOC(=O)N1C(=S)c2ccccc2S1(=O)=O [compound 6] | B (Less than 100 to 80.0 or more) | B (Less than 25% of untreated plot) | A (100) | Evaluation (total diseased area of all the cotyledons) [4]: B (Less than 25% of untreated plot)
C=CCOC(=O)N1C(=S)c2ccccc2S1(=O)=O [compound 7] | B (Less than 100 to 80.0 or more) | B (Less than 25% of untreated plot) | B (Less than 100 to 80.0 or more) | 
C#CCOC(=O)N1C(=S)c2ccccc2S1(=O)=O [compound 8] | B (Less than 100 to 80.0 or more) |  | B (Less than 100 to 80.0 or more) | Evaluation (total infected area of all the first leaves) (Erysiphe graminis): B (Less than 25% of untreated plot)
CC(C)COC(=O)N1C(=S)c2ccccc2S1(=O)=O [compound 9] | B (Less than 100 to 80.0 or more) | B (Less than 25% of untreated plot) | B (Less than 100 to 80.0 or more) | Evaluation (total diseased area of all the cotyledons) [4]: B (Less than 25% of untreated plot)
O=C(Oc1ccc(Cl)cc1)N1C(=S)c2ccccc2S1(=O)=O [compound 10] | B (Less than 100 to 80.0 or more) | B (Less than 25% of untreated plot) |  | 
CSCN1C(=S)c2ccccc2S1(=O)=O [compound 17] | B (Less than 100 to 80.0 or more) |  |  | 
N#CCN1C(=S)c2ccccc2S1(=O)=O [compound 19] | B (Less than 100 to 80.0 or more) |  |  | 
O=[N+]([O-])CN1C(=S)c2ccccc2S1(=O)=O [compound 20] | B (Less than 100 to 80.0 or more) |  |  | 
CC(=O)N1C(=S)c2ccccc2S1(=O)=O [compound 22] | B (Less than 100 to 80.0 or more) |  |  | 
COC(=O)N1C(=S)c2ccccc2S1(=O)=O [compound 23] | B (Less than 100 to 80.0 or more) |  |  | 
CC(C)OC(=O)N1C(=S)c2ccccc2S1(=O)=O [compound 24] | B (Less than 100 to 80.0 or more) |  |  | 

SMILES | Evaluation (preventive value, number of lesions of the upper young leaf) (Pyricularia oryzae [1]) | Evaluation (total diseased area of all the first leaves) (Septoria nodorum) | Evaluation (preventive value, number of lesions of the fourth leaf) (Pyricularia oryzae [3]) | also measured
O=C(Oc1ccccc1)N1C(=S)c2ccccc2S1(=O)=O [compound 25] | B (Less than 100 to 80.0 or more) |  |  | 
CCC(=O)N1C(=S)c2ccccc2S1(=O)=O [compound 27] |  |  | B (Less than 100 to 80.0 or more) | 
O=S1(=O)c2ccccc2C(=S)N1C1CCCC1 [compound 29] |  | B (Less than 25% of untreated plot) |  | 
O=C(OCCCl)N1C(=S)c2ccccc2S1(=O)=O [compound 30] |  | B (Less than 25% of untreated plot) | B (Less than 100 to 80.0 or more) | 
CCCCOC(=O)N1C(=S)c2ccccc2S1(=O)=O [compound 31] | B (Less than 100 to 80.0 or more) | B (Less than 25% of untreated plot) |  | 
O=[N+]([O-])CCN1C(=S)c2ccccc2S1(=O)=O [compound 39] | B (Less than 100 to 80.0 or more) | B (Less than 25% of untreated plot) | B (Less than 100 to 80.0 or more) | 
CC(C[N+](=O)[O-])N1C(=S)c2ccccc2S1(=O)=O (stereo not drawn) [compound 40] | B (Less than 100 to 80.0 or more) | B (Less than 25% of untreated plot) | B (Less than 100 to 80.0 or more) | 
CCOC(=O)C(C(=O)OCC)N1C(=S)c2ccccc2S1(=O)=O [compound 42] |  |  |  | Evaluation (total diseased area of all the cotyledons) [4]: B (Less than 25% of untreated plot)
CON1C(=S)c2ccccc2S1(=O)=O [compound 43, 2-methoxy-1,2-benzisothiazoline-3-thioxo-1,1-dioxide] | B (Less than 100 to 80.0 or more) |  | B (Less than 100 to 80.0 or more) | 
O=S1(=O)c2ccccc2C(=S)N1CBr [compound 44, 2-bromomethyl-1,2-benzisothiazoline-3-thioxo-1,1-dioxide] | B (Less than 100 to 80.0 or more) | B (Less than 25% of untreated plot) | B (Less than 100 to 80.0 or more) | 
O=S1(=O)c2ccccc2C(=S)N1CCl [compound 45] | B (Less than 100 to 80.0 or more) |  | A (100) | 
O=C(OCN1C(=S)c2ccccc2S1(=O)=O)c1ccccc1 [compound 46, 2-benzoyloxymethyl-1,2-benzisothiazoline-3-thioxo-1,1-dioxide] | B (Less than 100 to 80.0 or more) |  | B (Less than 100 to 80.0 or more) | 
O=C(OCN1C(=S)c2ccccc2S1(=O)=O)c1cc(Cl)nc(Cl)c1 [compound 47] | B (Less than 100 to 80.0 or more) |  |  | Evaluation (preventive value, number of lesions of the upper young leaf) (Pyricularia oryzae [2]): B (Less than 100 to 80.0 or more)
N#CSCN1C(=S)c2ccccc2S1(=O)=O [compound 48] |  | B (Less than 25% of untreated plot) | B (Less than 100 to 80.0 or more) | Evaluation (total diseased area of all the cotyledons) [4]: B (Less than 25% of untreated plot)
Cc1nnsc1C(=O)OCN1C(=S)c2ccccc2S1(=O)=O [compound 49] |  |  | B (Less than 100 to 80.0 or more) | 
COCCN1C(=S)c2ccccc2S1(=O)=O [compound 53] |  |  |  | Evaluation (total diseased area of all the cotyledons) [4]: B (Less than 25% of untreated plot)
